Starred links: 1 amine or outer side, 2 acyl side, 3 side chain; linkers in the order of their positions; H or OH if unused. Non-standard residues stand in square brackets, D forms with d. Residues, ends and D or L forms follow the SMILES beside them. ξ: configuration not given here. X1 = O=C([C@H](CCCCO)N[*:1])[*:2]; Hyp = O=C(O)[C@@H]1C[C@@H](O)CN1; Thr(3ξ) = CC(O)[C@H](N)C(=O)O; pGlu = O=C1CC[C@@H](C(=O)O)N1; hSer = N[C@@H](CCO)C(=O)O
Assays:
[1] = system: rats with dry eye syndrome (extraorbital lacrimal gland excision, ELGE); experiment: Amount of tear secretion (Schirmer test, cobalt chloride paper) in rats with ELGE-induced dry eye syndrome; assay type: in vivo, rat; settings: 0.3% solution (DS 3%), administration for 14 days
From the text: (§1) In order to evaluate the eye protection effect on dry eye syndrome by YDE-001 to YDE-028 prepared in Working Example 1, a total of 320 Sprague-Dawley-type male rats (OrientBio, Seungnam, Korea) were adapted for 7 days. Thereafter, dry eye syndrome was induced in 264 test rats through extraorbital lacrimal gland excision (hereinafter, ELGE). 8 test rats without the eye abnormality were subjected to a sham operation as a control group.
(§2) The rats were systemically anesthetized by inhaling a mixed gas of 2% to 3% of isoflurane (Hana Pharm. Co., Hwasung, Korea), 70% of N2O, and 28.6% of O2 using a rodent anesthesia machine (Surgivet, Waukesha, Wis., USA) and a ventilator (Model 687, Harvard Apparatus, Cambridge, UK). Thereafter, the extraorbital lacrimal gland located in the subdermal area above the masseter muscle and under the optic nerve was excised through a transverse incision in a size of 10 mm on the anterior part of the left ear tragus. The skin was sutured by a general method. […] After 6 days following the ELGE operation, confirmation was performed through the Schirmer test by measuring the amount of tear secretion whether dry eye syndrome had been induced. Meanwhile, each rat of the control group with the sham operation was checked for the presence and location of the extraorbital lacrimal gland through a skin incision, and the skin was then sutured without the excision thereof (FIG. 134).
(§3) In addition, in order to evaluate the eye protection effect on dry eye syndrome by YDE-029 to YDE-043 prepared in Working Example 1, a total of 200 Sprague-Dawley-type male rats (OrientBio, Seungnam, Korea) were adapted for 7 days. Dry eye syndrome was induced in 165 test rats through the ELGE. 8 test rats without the eye abnormality were subjected to the sham operation as a control group. The ELGE was carried out as described above.
(§4) For YDE-001 to YDE-028, YY-102 and the 28 YDE-series were each dissolved in physiological saline at a concentration of 3 mg/ml and administered at a dose of 5 μl/eye at 9:30 am and 3:30 pm daily for 14 days after 7 days from the ELGE operation for a total of 28 times. The DS solution was dissolved in physiological saline at a concentration of 30 mg/ml and administered at a dose of 5 μl/eye twice a day for 14 days after 7 days from the ELGE operation for a total of 28 times. For the sham control and the ELGE control groups, the same stimulation as the administration was applied. In order to prevent excessive eye dryness, the same volume of physiological saline was applied in the same manner in place of the test substances.
as §4, with “Further, For YDE-029” for “For YDE-001”, “Further, For YDE-029 to YDE-043,” for “For YDE-001 to YDE-028,”, “YDE-029 to YDE-043, YY-102 and” for “YDE-001 to YDE-028, YY-102 and”, “and the 15 YDE-series were” for “and the 28 YDE-series were”, “the test substances (FIG. 137).” for “the test substances.”
After 6 days from the ELGE surgery, the changes in the amount of tear secretion were measured at day 7 and day 14 after the administration of YDE-001 to YDE-043. The amount of tear secretion was measured by the […] travel distance of tears absorbed by cobalt chloride paper in a size of 1×15 mm (Toyo Roshi Kaisha, Japan).
The cobalt chloride paper was placed in the lateral canthus of a rat for 60 seconds to absorb tears (FIG. 139). The length of the area absorbed from the corner of the cobalt chloride paper was measured with an electronic digital caliper (Mytutoyo, Tokyo, Japan) (FIG. 138).

[2] = system: cornea of rats with dry eye syndrome (ELGE); experiment: Corneal permeability of fluorescent dye (corneal damage) in rats with ELGE-induced dry eye syndrome; assay type: in vivo, rat; settings: 0.3% solution, day 14 after the administration
From the text: as §1, §2, §3, §4
as §4, with “Further, For YDE-029” for “For YDE-001”, “Further, For YDE-029 to YDE-043,” for “For YDE-001 to YDE-028,”, “YDE-029 to YDE-043, YY-102 and” for “YDE-001 to YDE-028, YY-102 and”, “and the 15 YDE-series were” for “and the 28 YDE-series were”, “the test substances (FIG. 137).” for “the test substances.”
After YDE-001 to YDE-028 were each administered to the eyes […], the changes in the corneal permeability were checked.
In order to measure the corneal permeability, Zolethyl 50™ (Virbac Lab., Carros, France), an animal anesthetic, was intraperitoneally injected at a dose of 25 mg/kg. Thereafter, saline containing a 1% (v/v) fluorescent solution (fluorescein sodium salt, Tokyo Kasei Kogyo Co., Tokyo, Japan) was applied to the eyes at a dose of 5 μl/eye. The eyes thus treated were closed and fixed with a tape. After 1 hour, the remaining fluorescent solution was removed using a cotton swab (FIG. 142). […]

[3] = Stability in aqueous solution, amount of related substances under long-term storage conditions; assay type: physicochemical; settings: glass vial, 25° C., 75% RH
Protocol: In order to confirm the stability of each test substance in an aqueous solution, […] of each sample was dissolved in 1 ml of water to a concentration of 1 mg/ml, which was then charged to a glass vial, plugged with a rubber cap, sealed with an aluminum cap, and stored under long-term storage conditions (25° C., 75% RH). The stability of the test substance was evaluated by measuring the amount of related substances at the time of one week, two weeks, four weeks, eight weeks, and twelve weeks under the long-term storage conditions.

[4] = study of YDE-029 to YDE-043 (Table 17)
[5] = study of YDE-001 to YDE-028 (Table 16)

SMILES | Amount of tear secretion as compared with the ELGE control group ([1]; study of YDE-029 to YDE-043) | Permeability of fluorescent dye (%) [2, 4] | Amount of tear secretion as compared with the ELGE control group ([1]; study of YDE-001 to YDE-028) | Amount of related substances (%; after 12 weeks) [3] | Permeability of fluorescent dye (%) [2, 5]
CC(C)C[C@H](NC(=O)CNC(=O)[C@H](CC(C)C)NC(=O)[C@H](CCC(N)=O)NC(=O)CNC(=O)[C@@H]1C[C@@H](O)CN1)C(=O)N[C@@H](C)C(=O)O [YDE-041, HyP-Gly-Gln-Leu-Gly-Leu-Ala] (H-[Hyp]GQLGLA-OH) | did not show any significant changes | 46.38 ± 26.65% | – | – | –
CC(C)C[C@H](NC(=O)CNC(=O)[C@H](CC(C)C)NC(=O)[C@H](CCC(N)=O)NC(=O)CNC(=O)[C@@H]1C[C@@H](O)CN1)C(=O)N[C@@H](C)C(=O)NCC(=O)N1CCC[C@H]1C(=O)N[C@@H](CCCCO)C(=O)O [YDE-033, HyP-Gly-Gln-Leu-Gly-Leu-Ala-Gly-Pro-Nle(6-OH)] (H-[Hyp]GQLGLAGP[X1]-OH) | did not show any significant changes | 60.55 ± 21.22% | – | – | –
O=c1ccn([C@@H]2O[C@H](COP(=O)(O)OP(=O)(O)OP(=O)(O)OP(=O)(O)OC[C@H]3O[C@@H](n4ccc(=O)[nH]c4=O)[C@H](O)[C@@H]3O)[C@@H](O)[C@H]2O)c(=O)[nH]1 [DS, diquafosol sodium, reference compound] | increased | – | increased | – | –
CC(C)C[C@H](NC(=O)CNC(=O)[C@H](CC(C)C)NC(=O)[C@H](CCC(N)=O)NC(=O)CNC(=O)[C@@H]1CCC(=O)N1)C(=O)N[C@@H](C)C(=O)NCC(=O)N1CCC[C@H]1C(=O)N[C@@H](CCCCN)C(=O)O [YDE-036, (5-oxo)Pro-Gly-Gln-Leu-Gly-Leu-Ala-Gly-Pro-Lys] ([pGlu]GQLGLAGPK-OH) | did not show any significant changes | 57.87 ± 22.91% | – | – | –
CC(C)C[C@H](NC(=O)CNC(=O)[C@H](CC(C)C)NC(=O)[C@H](CCC(N)=O)NC(=O)CNC(=O)[C@@H]1C[C@@H](O)CN1)C(=O)N[C@@H](C)C(=O)NCC(=O)N1CCC[C@H]1C(=O)N[C@@H](CCC(N)=O)C(=O)O [YDE-032, HyP-Gly-Gln-Leu-Gly-Leu-Ala-Gly-Pro-Gln] (H-[Hyp]GQLGLAGPQ-OH) | did not show any significant changes | 58.90 ± 19.81% | – | – | –
CC(C)C[C@H](NC(=O)CNC(=O)[C@H](Cc1c[nH]c2ccccc12)NC(=O)[C@H](CCC(N)=O)NC(=O)CNC(=O)[C@@H]1C[C@@H](O)CN1)C(=O)N[C@@H](C)C(=O)NCC(=O)N1CCC[C@H]1C(=O)N[C@@H](CCCCN)C(=O)O [YDE-014, HyP-Gly-Gln-Trp-Gly-Leu-Ala-Gly-Pro-Lys] (H-[Hyp]GQWGLAGPK-OH) | – | – | – | 6.72% | 31.15 ± 10.87%
CC(C)C[C@H](NC(=O)CNC(=O)[C@H](CCC(=O)O)NC(=O)[C@H](CCC(N)=O)NC(=O)CNC(=O)[C@@H]1C[C@@H](O)CN1)C(=O)N[C@@H](C)C(=O)NCC(=O)N1CCC[C@H]1C(=O)N[C@@H](CCCCN)C(=O)O [YDE-001, HyP-Gly-Gln-Glu-Gly-Leu-Ala-Gly-Pro-Lys] (H-[Hyp]GQEGLAGPK-OH) | – | – | – | 3.92% | 25.49 ± 11.62%
CC(C)C[C@H](NC(=O)CNC(=O)[C@H](C)NC(=O)[C@H](CCC(N)=O)NC(=O)CNC(=O)[C@@H]1C[C@@H](O)CN1)C(=O)N[C@@H](C)C(=O)NCC(=O)N1CCC[C@H]1C(=O)N[C@@H](CCCCN)C(=O)O [YDE-008, HyP-Gly-Gln-Ala-Gly-Leu-Ala-Gly-Pro-Lys] (H-[Hyp]GQAGLAGPK-OH) | – | – | – | 4.42% | 20.32 ± 11.87%
CC(C)C[C@H](NC(=O)CNC(=O)[C@H](CCO)NC(=O)[C@H](CCC(N)=O)NC(=O)CNC(=O)[C@@H]1C[C@@H](O)CN1)C(=O)N[C@@H](C)C(=O)NCC(=O)N1CCC[C@H]1C(=O)N[C@@H](CCCCN)C(=O)O [YDE-026, HyP-Gly-Gln-Ser(Homo)-Gly-Leu-Ala-Gly-Pro-Lys] (H-[Hyp]GQ[hSer]GLAGPK-OH) | – | – | – | 10.15% | 22.63 ± 11.23%
CC(C)C[C@H](NC(=O)CNC(=O)[C@H](CC(N)=O)NC(=O)[C@H](CCC(N)=O)NC(=O)CNC(=O)[C@@H]1C[C@@H](O)CN1)C(=O)N[C@@H](C)C(=O)NCC(=O)N1CCC[C@H]1C(=O)N[C@@H](CCCCN)C(=O)O [YDE-002, HyP-Gly-Gln-Asn-Gly-Leu-Ala-Gly-Pro-Lys] (H-[Hyp]GQNGLAGPK-OH) | – | – | – | 4.93% | 38.26 ± 11.25%
CC(C)C[C@H](NC(=O)CNC(=O)[C@@H](NC(=O)[C@H](CCC(N)=O)NC(=O)CNC(=O)[C@@H]1C[C@@H](O)CN1)C(C)O)C(=O)N[C@@H](C)C(=O)NCC(=O)N1CCC[C@H]1C(=O)N[C@@H](CCCCN)C(=O)O (stereo partly drawn) [YDE-007, HyP-Gly-Gln-Thr-Gly-Leu-Ala-Gly-Pro-Lys] (H-[Hyp]GQ[Thr(3ξ)]GLAGPK-OH) | – | – | – | 3.76% | 32.79 ± 10.77%
CC(C)C[C@H](NC(=O)CNC(=O)[C@H](Cc1ccc(O)cc1)NC(=O)[C@H](CCC(N)=O)NC(=O)CNC(=O)[C@@H]1C[C@@H](O)CN1)C(=O)N[C@@H](C)C(=O)NCC(=O)N1CCC[C@H]1C(=O)N[C@@H](CCCCN)C(=O)O [YDE-013, HyP-Gly-Gln-Tyr-Gly-Leu-Ala-Gly-Pro-Lys] (H-[Hyp]GQYGLAGPK-OH) | – | – | – | 5.92% | 32.24 ± 7.84%
CC(C)C[C@H](NC(=O)CNC(=O)[C@H](CCC(N)=O)NC(=O)[C@H](CCC(N)=O)NC(=O)CNC(=O)[C@@H]1C[C@@H](O)CN1)C(=O)N[C@@H](C)C(=O)NCC(=O)N1CCC[C@H]1C(=O)N[C@@H](CCCCN)C(=O)O [YDE-003, HyP-Gly-Gln-Gln-Gly-Leu-Ala-Gly-Pro-Lys] (H-[Hyp]GQQGLAGPK-OH) | – | – | – | 6.86% | 40.45 ± 6.46%
